US20090318446A1, “4-(1H-Indol-3-yl)-Pyrimidin-2-Ylamine Derivatives and Their Use in Therapy” (Cyclacel Limited, priority 2005, published 2009)
Where two headings read alike, the source gives them in different places.

Assays:
Assay type in all cases: biochemical
CDK2/cyclin E = CDK2/cyclin E (Homo sapiens, UniProt P24941); assay: Kinase assay CDK2/cyclin E
Procedure: The compounds from the examples above were investigated for their ability to inhibit the enzymatic activity of various protein kinases. This was achieved by measurement of incorporation of radioactive phosphate from ATP into appropriate polypeptide substrates. Recombinant protein kinases and kinase complexes were produced or obtained commercially. Assays were performed using 96-well plates and appropriate assay buffers (typically 25 mM β-glycerophosphate, 20 mM MOPS, 5 mM EGTA, 1 mM DTT, 1 mM […], pH 7.4), into which were added 2-4 μg of active enzyme with appropriate substrates. The reactions were initiated by addition of Mg/ATP mix (15 mM MgCl2+100 μM ATP with 30-50 kBq per well of [γ-^32P]-ATP) and mixtures incubated as required at 30° C. Reactions were stopped on ice, followed by filtration through p81 filterplates or GF/C filterplates (Whatman Polyfiltronics, Kent, UK). After washing 3 times with 75 mM aq orthophosphoric acid, plates were dried, scintillant added and incorporated radioactivity measured in a scintillation counter (TopCount, Packard Instruments, Pangbourne, Berks, UK). Compounds for kinase assay were made up as 10 mM stocks in DMSO and diluted into 10% DMSO in assay buffer. Data was analysed using curve-fitting software (GraphPad Prism version 3.00 for Windows, GraphPad Software, San Diego Calif. USA) to determine IC50 values (concentration of test compound which inhibits kinase activity by 50%).

Flt-3 = target: T1, Flt-3 (Homo sapiens, UniProt P36888); assay: Flt3 kinase assay
T1 construct: purchased Upstate, Dundee, UK
T1 sequence (P36888 564-993 limits assumed): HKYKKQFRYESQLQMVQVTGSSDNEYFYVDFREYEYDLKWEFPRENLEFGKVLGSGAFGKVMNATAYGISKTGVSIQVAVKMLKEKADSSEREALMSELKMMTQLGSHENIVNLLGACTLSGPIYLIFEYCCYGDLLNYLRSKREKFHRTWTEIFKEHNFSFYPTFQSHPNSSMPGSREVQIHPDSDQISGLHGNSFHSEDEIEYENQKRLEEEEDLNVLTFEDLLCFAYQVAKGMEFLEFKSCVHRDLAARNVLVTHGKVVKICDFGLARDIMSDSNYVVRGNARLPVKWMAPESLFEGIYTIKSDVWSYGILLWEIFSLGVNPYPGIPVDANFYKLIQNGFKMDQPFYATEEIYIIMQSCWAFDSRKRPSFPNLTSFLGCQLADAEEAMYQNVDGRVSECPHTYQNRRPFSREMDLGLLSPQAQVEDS
Procedure: (§1) This was achieved by measurement of incorporation of radioactive phosphate from ATP into myelin basic protein (MBP) substrate, upon phosphorylation by commercially obtained Flt-3 Upstate, Dundee, UK). Assays were performed using 96-well plates and appropriate assay buffers (20 mM Tris, 25 mM β-glycerophosphate, 5 mM EGTA, 1 mM DTT, 1 mM sodium vanadate, pH 7.5), into which were added 5 ng of active enzyme with 0.4 mg/ml substrate (MBP). The reactions were initiated by addition of MgATP mix (15 mM MgCl2+100 μM ATP with 15-25 kBq per well of [γ-^32P]-ATP) and mixtures incubated for 30 min at 30° C. Reactions were stopped by addition of an equal volume of 75 mM aq orthophosphoric acid, followed by filtration through p81 filterplates (Whatman Polyfiltronics, Kent, UK). After washing 4 times with 75 mM aq orthophosphoric acid, plates were dried, scintillant added and incorporated radioactivity measured in a scintillation counter (TopCount, Packard Instruments, Pangbourne, Berks, UK). Compounds for kinase assay were made up as 10 mM stocks in DMSO and diluted into 10% DMSO in assay buffer. Data was analysed using curve-fitting software (XLfit version 4.0.2, IDBS, Guildford, Surrey, UK) to determine IC50 values (concentration of test compound which inhibits kinase activity by 50%).

aurora-A = target: T2, aurora-A (Homo sapiens, UniProt O14965); assay: Aurora-A (human) kinase assay
T2 construct: purchased Upstate, Dundee, UK
T2 sequence (O14965 1-403): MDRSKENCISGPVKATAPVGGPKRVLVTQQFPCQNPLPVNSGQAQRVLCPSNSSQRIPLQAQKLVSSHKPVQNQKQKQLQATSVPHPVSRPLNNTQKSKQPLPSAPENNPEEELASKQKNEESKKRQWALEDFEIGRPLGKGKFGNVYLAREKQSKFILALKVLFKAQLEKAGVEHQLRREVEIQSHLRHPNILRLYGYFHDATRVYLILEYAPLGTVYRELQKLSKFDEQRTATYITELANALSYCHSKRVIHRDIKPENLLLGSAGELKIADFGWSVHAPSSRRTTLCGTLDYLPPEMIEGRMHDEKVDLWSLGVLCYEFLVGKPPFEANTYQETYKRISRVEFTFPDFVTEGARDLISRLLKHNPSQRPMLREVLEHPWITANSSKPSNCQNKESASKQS
Procedure: as §1, with “into Kemptide substrate (LRRASLG),” for “into myelin basic protein (MBP) substrate,”, “obtained aurora-A (human,” for “obtained Flt-3”, “added 2-5” for “added 5”, “with 500 μM” for “with 0.4 mg/ml”, “substrate (Kemptide).” for “substrate (MBP).”

[1] = Table 2, read-out: Kinase inhibition IC50 CDK2E
[2] = Table 3, read-out: Kinase inhibition CDK2E
[3] = Table 2, read-out: Kinase inhibition IC50 FLT3
[4] = Table 3, read-out: Kinase inhibition Flt3
[5] = Table 2, read-out: Kinase inhibition IC50 Aurora A
[6] = Table 3, values without asterisk, read-out: Kinase inhibition Aurora A

Row | Structure (SMILES) | IC50 (CDK2/cyclin E; [1]) [nM] | IC50 (CDK2/cyclin E; [2]) [nM] | IC50 (Flt-3; [3]) [nM] | IC50 (Flt-3; [4]) [nM] | IC50 (aurora-A; [5]) [nM] | IC50 (aurora-A; [6]) [nM]
1 | O=[N+]([O-])c1cccc(Nc2nccc(-c3c[nH]c4ccccc34)n2)c1 [Compound 2, [4-(1H-Indol-3-yl)-pyrimidin-2-yl]-(3-nitro-phenyl)-amine] | 2900 | 2950 | 130 | 133 | 270 | 
2 | Fc1ccc(Nc2nccc(-c3c[nH]c4ccccc34)n2)cc1 [Compound 3, (4-Fluoro-phenyl)-[4-(1H-indol-3-yl)-pyrimidin-2-yl]-amine] | 1200 | 1170 | 270 | 274 | 1100 | 
3 | COc1ccc(Nc2nccc(-c3c[nH]c4ccccc34)n2)cn1 [Compound 4, [4-(1H-Indol-3-yl)-pyrimidin-2-yl]-(6-methoxy-pyridin-3-yl)-amine] | 1300 | 1250 | 150 | 148 | 240 | 
4 | c1ccc2c(-c3ccnc(Nc4ccc(N5CCOCC5)cc4)n3)c[nH]c2c1 [Compound 5, [4-(1H-Indol-3-yl)-pyrimidin-2-yl]-(4-morpholin-4-yl-phenyl)-amine] | > 10000 |  | 52 | 51.6 | 58 | 804
5 | CC1CN(c2ccc(Nc3nccc(-c4c[nH]c5ccccc45)n3)cc2)CC(C)O1 (centres unmarked) [Compound 9] |  | 4910 |  | 29.8 |  | 277
6 | CN(C)c1ccc(Nc2nccc(-c3c[nH]c4ccccc34)n2)cc1 [Compound 10, N′-[4-(1H-indol-3-yl)pyrimidin-2-yl]-N,N-dimethylbenzene-1,4-diamine] |  | 2350 |  | 84.9 |  | 282
7 | CC(=O)N1CCN(c2ccc(Nc3nccc(-c4c[nH]c5c(C)cccc45)n3)cc2)CC1 [Compound 23] |  | 2430 |  | 33.2 |  | 91.7

Compounds with a lower IC50 (Flt-3; [4]), results first:

Row | IC50 (CDK2/cyclin E; [1]) [nM] | IC50 (CDK2/cyclin E; [2]) [nM] | IC50 (Flt-3; [3]) [nM] | IC50 (Flt-3; [4]) [nM] | IC50 (aurora-A; [5]) [nM] | IC50 (aurora-A; [6]) [nM] | Structure (SMILES)
8 |  | 4500 |  | 13.3 |  | 130 | CC(=O)N1CCN(c2ccc(Nc3nccc(-c4c[nH]c5ccccc45)n3)cc2)CC1 [Compound 6, 4-(1H-indol-3-yl)-N-(4-acetylpiperazin-1-ylphenyl)pyrimidin-2-amine]
9 |  | 1930 |  | 12.7 |  | 221 | c1ccc2c(-c3ccnc(Nc4ccc(N5CCNCC5)cc4)n3)c[nH]c2c1 [Compound 7, 4-(1H-indol-3-yl)-N-(4-piperazin-1-ylphenyl)pyrimidin-2-amine]
10 |  | 1820 |  | 1.3 |  | 53.4 | COc1cc(Nc2nccc(-c3c[nH]c4ccccc34)n2)cc(OC)c1OC [Compound 12, 4-(1H-indol-3-yl)-N-(3,4,5-trimethoxyphenyl)pyrimidin-2-amine]
11 |  | 7600 |  | 2.4 |  | 112 | COc1cc(Nc2nccc(-c3c[nH]c4ccccc34)n2)ccc1N1CCOCC1 [Compound 13, 4-(1H-indol-3-yl)-N-(3-methoxyl-4-morpholin-4-ylphenyl)pyrimidin-2-amine]
12 |  | 5150 |  | 11 |  | 37.7 | CC(=O)N1CCN(c2ccc(Nc3nccc(-c4c(C)[nH]c5ccccc45)n3)cc2)CC1 [Compound 22]
